In assay [1] the test system is MM1S^HECA452. The assay is described as follows: survival of SCID beige mice transplanted with MM1S^HECA452 cells. In kind it is in vivo. The following applies: MM1S^HECA452 engrafted female SCID beige mice; FIG. 4. Here is the method:
(§1) The significance of these in vitro findings were studied in vivo. Female SCID beige mice were injected i.v. with either MM1S^par or MM1S^HECA452 (5×10^5 cells, n=8/group) and followed for survival (see, e.g., FIG. 2). In separate cohorts, the effect of treatment with saline control, GMI-1271, bortezomib (BTZ) or a combination of both was determined in mice transplanted with either MM1S^par or MM1S^HECA452 cells.

The target in assay [2] is T1, E-selectin (Homo sapiens, UniProt P16581).
T1 sequence (P16581 22-610): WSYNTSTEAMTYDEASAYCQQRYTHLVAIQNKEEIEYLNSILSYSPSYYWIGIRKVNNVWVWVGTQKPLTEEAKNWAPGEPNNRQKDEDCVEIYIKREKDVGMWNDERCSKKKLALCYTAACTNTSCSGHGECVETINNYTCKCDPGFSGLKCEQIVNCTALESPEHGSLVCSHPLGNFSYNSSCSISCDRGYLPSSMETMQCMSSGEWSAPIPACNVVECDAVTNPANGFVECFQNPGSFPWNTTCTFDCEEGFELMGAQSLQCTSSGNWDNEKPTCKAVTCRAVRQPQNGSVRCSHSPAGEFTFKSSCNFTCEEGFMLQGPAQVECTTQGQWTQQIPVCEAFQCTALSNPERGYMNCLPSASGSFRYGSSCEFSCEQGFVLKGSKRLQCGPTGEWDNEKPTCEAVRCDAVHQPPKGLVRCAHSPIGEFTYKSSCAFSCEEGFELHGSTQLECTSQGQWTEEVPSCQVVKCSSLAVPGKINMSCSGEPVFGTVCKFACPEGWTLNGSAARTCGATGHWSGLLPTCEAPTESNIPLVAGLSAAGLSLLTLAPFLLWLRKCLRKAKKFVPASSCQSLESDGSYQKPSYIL
The assay can be described thus: static adhesion assay on E-selectin. The following applies: GMI-1271 included during culture conditions; MM1S^HECA452 cells. The format is cell-based. From the text: (§2) The derived cell lines could be passaged in vitro and were stable for enriched E-selectin ligand expression identified by antibody HECA-452.

Assay [3] deals with T1, E-selectin. The assay is described as follows: rolling on E-selectin under shear stress. The format is cell-based. The following applies: both HECA-452 enriched and parental MM cell lines.
Text: as §2

The next assay has as its system MM1S^par. The assay can be described thus: survival of SCID beige mice transplanted with MM1S^par cells. The format is in vivo. To be noted: MM1S^par engrafted female SCID beige mice; FIG. 3. The procedure:
as §1

Assay [4] concerns MM1S^HECA452. The assay is described as follows: mobilization of human CD138+ MM cells into the bloodstream of mice with MM1S^HECA452 tumors. In kind it is in vivo. The procedure:
The number of human CD138+ MM cells was mobilized into the bloodstream in mice with MM1S^HECA452 tumors within 60 min following a single injection of GMI-1271 (see, e.g., FIG. 5) and persisted for at least 24 hours (2.37% v. 0.03%, p<0.001). This effect was consistent with GMI-1271 disrupting the tumor microenvironment and mobilizing MM1S^HECA-452 cells from the BM niche into the peripheral blood.

For assay [5], the target named is T1, E-selectin. To be noted: MM1S cells that bind to HECA-452; previously reported; cited from earlier work.
A further assay deals with MM cells. To be noted: murine transplant models; Natoni et al., Blood, 2014; cited from earlier work.
Where [6] appears, read: following a single injection of GMI-1271.

With `CC(C)C[C@H](NC(=O)[C@H](Cc1ccccc1)NC(=O)c1cnccn1)B(O)O` [BTZ, bortezomib], the “survival / anti-myeloma activity” value with MM1S^HECA452 [1] was “marked resistance to BTZ treatment”.

Regarding `CC[C@H]1C[C@@H](C(=O)NCCNC(=O)CCOCCOCCOCCOCCOCCOCCOCCOCCOCCOCCOCCOC)C[C@@H](O[C@@H]2O[C@H](CO)[C@H](O)[C@H](O[C@@H](CC3CCCCC3)C(=O)[O-])[C@H]2NC(C)=O)[C@@H]1O[C@@H]1O[C@@H](C)[C@@H](O)[C@@H](O)[C@@H]1O.[Na+]` [GMI-1271], at E-selectin [2], the “adhesion of MM1S^HECA452 to E-selectin” value was “marked reduction in adhesion”. Further, the “rolling on E-selectin” value on E-selectin [3] is reported as “profoundly inhibited rolling”. Further, in the assay on MM1S^par, the survival entry is “no impact on survival”. The “human CD138+ MM cells in the bloodstream” value with MM1S^HECA452 [4] (after a single injection of GMI-1271, 24 hours, v. 0.03%, p<0.001) turned out to be 2.37%. Further, in the assay on MM1S^HECA452 [4] (setting [6]), the persistence of mobilization entry is “at least 24 hours” and the “time to mobilization of CD138+ MM cells into the bloodstream” value is reported as at most 60 min. In addition, the “rolling of MM1S cells on E-selectin” value at E-selectin [5] was “blocked the rolling”. Also, in the assay with MM cells, the “effect on activity of bortezomib in vivo” value is “enhance the activity of bortezomib”.

The record behind these values is patent US20180318325A1, “ANTIBODIES FOR TARGETING CANCER STEM CELLS AND TREATING AGGRESSIVE CANCERS” (GlycoMimetics, Inc., priority 2015, published 2018).
